From patent US6699969B1, “Assays for the detection of microtubule depolymerization inhibitors” (The Regents of the University of California, priority 1998, dated 2004)

Test system: MSU1.1 human fibroblasts
Assay: Centrosome targeting of GFP fusion after transient transfection
Format: cell-based
Settings: 2-4 hr after transfection
Method: To allow transient expression of a human p80 WD40-GFP fusion protein in HeLa cells, a DNA fragment containing amino acids 1-263 of human p80 katanin was generated by PCR amplification, placing a BamHl site and a Kozak consensus at the predicted translation start and an EcoRI site after the codon for a.a. 263. This BamH1-EcoR1 fragment was ligated into the GFP fusion vector pEGFP-N1 (Clontech).
Both MSU1.1 and Hela cells were grown on 18 mm glass coverslips in Optimem medium (Life Technologies) supplemented with 10% fetal bovine serum, penicillin and streptomycin. Plasmids were transfected using Superfect Reagent (Qiagen) for 2 hr after which coverslips were washed with PBS and placed in fresh culture medium at 37° C. with 5% CO2 for 1-24 hr.
For imaging of GFP-fluorescence and immunofluorescence with the human p80 katanin antibody or with the γ-tubulin antibody, monoclonal GTU88 (Sigma Chemical), cells on coverslips were fixed either in −20° C. methanol or in 0.5×PBS, 3.7% formaldehyde, 75% methanol at 22° C. for 10 min followed by rehydration in TBST. Antibody labelling was carried out in TBST containing 4% BSA. Images were captured with a Nikon Microphot SA microscope, 100× Plan Fluor 1.3 objective, Photometrics Quantix camera and IP Lab Spectrum software (Scanalytics).

“p80 WD40-GFP: six WD40 repeats of human p80 katanin (a.a. 1-263) appended to N-terminus of green fluorescent protein” was tested, and the “localization of green fluorescence” value was “co-localized with γ-tubulin staining”.
